Source: US9777002B2, “Inhibitors of the renal outer medullary potassium channel” (Merck Sharp & Dohme Corp., priority 2012, dated 2017)

Target: T1, hROMK (hKir1.1) (Homo sapiens, UniProt P48048)
T1 construct: expressed in transfected cells
T1 sequence (P48048 1-391): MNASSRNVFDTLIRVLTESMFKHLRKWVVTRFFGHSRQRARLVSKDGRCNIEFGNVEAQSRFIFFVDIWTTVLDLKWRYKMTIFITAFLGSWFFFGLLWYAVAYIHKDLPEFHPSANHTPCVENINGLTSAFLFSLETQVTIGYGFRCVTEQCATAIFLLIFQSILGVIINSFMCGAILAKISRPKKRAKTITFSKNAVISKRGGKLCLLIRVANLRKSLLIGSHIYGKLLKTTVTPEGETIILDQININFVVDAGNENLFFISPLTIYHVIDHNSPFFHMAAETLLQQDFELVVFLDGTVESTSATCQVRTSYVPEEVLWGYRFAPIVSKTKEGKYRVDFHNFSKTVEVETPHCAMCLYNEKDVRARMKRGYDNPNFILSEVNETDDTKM
Test: Thallium Flux Assay
Assay type: cell-based
Conditions: HEK293 cells stably expressing hROMK (hKir1.1)
Method: Cell Culture Conditions—HEK293 cells stably expressing hROMK (hKir1.1) were grown at 37° C. in a 10% CO2 humidified incubator in complete growth media: Dulbecco's Modified Eagle Medium supplemented with non-essential amino acids, Penicillin/Streptomycin/Glutamine, G418 and FBS. At >80% confluency, aspirate the media from the flask and rinse with 10 mL Calcium/Magnesium-free PBS. Add 5 mL of 1× trypsin (prepared in Ca/Mg Free PBS) to T-225 flask and return flask to 37° C./CO2 incubator for 2-3 minutes. To dislodge the cell, gently bang the side of the flask with your hand. Triturate the cells completely and then transfer the cells to 25 mL complete media. Centrifuge at 1,500 rpm for 6 min followed by resuspension in complete growth media and determine cell concentration. For typical re-seeding, 4E6 cells/T-225 flask will attain >80% confluency in 4 days. Under ideal growth conditions and appropriate tissue culture practices, this cell line is stable for 40-45 passages.
FluxOR Kit Components (Invitrogen F10017)
• FluxOR™ Reagent (Component A) • FluxOR™ Assay Buffer (Component B)—10× Concentrate • PowerLoad™ Concentrate (Component C)—100× Concentrate • Probenecid (Component D)—Lyophilized sample is kept at −20° C. Water soluble, 100× after solubilization in 1 mL water. Store at 4° C. • FluxOR™ Chloride-free Buffer (Component E)—5× Concentrate • Potassium sulfate (K2SO4) Concentrate (Component F)—125 mM in water. Store at 4° C. • Thallium sulfate (Tl2SO4) Concentrate (Component G)—50 mM in water. Store at 4° C. • DMSO (dimethyl sulfoxide, Component H)—1 mL (100%) Reagent Preparation: FluxOR Working Solutions • 1000× FluxOR™ Reagent: Reconstitute a vial of component A in 100 μl DMSO; Mix well; Store 10 μl aliquots at −20° C. • 1× FluxOR™ Assay Buffer: Dilute Component B 10-fold with water; Adjust pH to 7.4 with Hepes/NaOH; Filter and store at 4° C. • Probenecid/Assay Buffer: 100 mL of 1× FluxOR™ Assay Buffer; 1 mL of reconstituted component D; Store at 4° C. • Loading Buffer (per microplate): 10 μl 1000× FluxOR™ Reagent; 100 μl component C; 10 mL Probenecid/Assay Buffer • Compound Buffer (per microplate): 20 mL Probenecid/Assay Buffer; 0.3 mM ouabain (10 mM ouabain in water can be stored in amber bottle/aluminum foil at room temperature); Test compound • 1× FluxOR™ Chloride-Free Buffer: Prepare 1× working solution in water. Can be stored at room temperature • Stimulant Buffer (prepared at 5× final concentration in 1× FluxOR™Chloride-Free Buffer): 7.5 mM Thallium sulfate and 0.75 mM Potassium sulfate (to give a final assay concentration of 3 mM Thallium/0.3 mM Potassium). Store at 4° C. when not in use. If kept sterile, this solution is good for months.
Assay Protocol—The ROMK channel functional thallium flux assay is performed in 384 wells, using the FLIPR-Tetra instrument. HEK-hKir1.1 cells are seeded in Poly-D-Lysine microplates and kept in a 37° C.-10% CO2 incubator overnight. On the day of the experiment, the growth media is replaced with the FluxOR™ reagent loading buffer and incubated, protected from light, at ambient temperature (23-25° C.) for 90 min. The loading buffer is replaced with assay buffer± test compound followed by 30 min incubation at ambient temperature, where the Thallium/Potassium stimulant is added to the microplate.
• 1. Seed HEK-hKir1.1 cells (50 μl at 20,000 cells/well) in 384-well PDL coated Microplates • 2. Allow cells to adhere overnight in humidified 37° C./10% CO2 incubator • 3. Completely remove cell growth media from microplate and replace with 25 μl loading buffer • 4. Incubate Microplate at room temperature, protected form light, for 90 min • 5. Remove loading buffer and replace with 25 μl 1× Assay Buffer±test compound. • 6. Incubate microplate at room temperature, protected from light, for 30 min • 7. At FLIPR-Tetra 384: Add stimulant (Thallium/Potassium) solution to microplate and monitor fluorescence. Excitation=400 nm, Emission=460 & 580 nm. Collect data for ˜10 min. […]

Row | Structure (SMILES) | IC50 [nM]
1 | Cc1c([C@@H](O)CN2CC[C@H](NC(=O)c3ccc(-n4cnnn4)cn3)[C@H](F)C2)ccc2c1COC2=O (single isomer, unassigned) [58 A] | 540
2 | Cc1c([C@@H](O)CN2C3CCC2CC(NC(=O)c2ccc(-n4cnnn4)cn2)C3)ccc2c1COC2=O (stereo partly drawn) [Example 76, N-(8-((R)-2-Hydroxy-2-(4-methyl-1-oxo-1,3-dihydroisobenzofuran-5-yl)ethyl)-8-azabicyclo[3.2.1]octan-3-yl)-5-(1H-tetrazol-1-yl)picolinamide] | 430
3 | Cc1c([C@@H](O)CN2CC[C@H](NC(=O)c3ccc(-n4cnnn4)nc3)[C@H](F)C2)ccc2c1COC2=O (single isomer, unassigned) [50 A] | 100
4 | Cc1nc(C(=O)N[C@H]2CCN(C[C@H](O)c3ccc4c(c3C)COC4=O)C[C@H]2F)ccc1C#N (single isomer, unassigned) [44 B] | 260
5 | Cc1c([C@@H](O)CN2CCC(NC(=O)c3ccc(C#N)nc3)C(F)C2)ccc2c1COC2=O (single isomer, unassigned) [46 A] | 520
6 | Cc1c([C@@H](O)CN2CC3C(C2)C3NC(=O)c2ccc(-n3cnnn3)cn2)ccc2c1COC2=O (stereo partly drawn) [Example 56, N-(3-((R)-2-Hydroxy-2-(4-methyl-1-oxo-1,3-dihydroisobenzofuran-5-yl)ethyl)-3-azabicyclo[3.1.0]hexan-6-yl)-5-(1H-tetrazol-1-yl)picolinamide] | 710
7 | Cc1c([C@@H](O)CN2CCC(NC(=O)c3cnc(-n4cnnn4)cn3)CC2)ccc2c1COC2=O [Example 64, (R)-N-(1-(2-Hydroxy-2-(4-methyl-1-oxo-1,3-dihydroisobenzofuran-5-yl)ethyl)piperidin-4-yl)-5-(1H-tetrazol-1-yl)pyrazine-2-carboxamide] | 470
8 | Cc1c([C@@H](O)CN2CCC(C)(NC(=O)c3cnc(-n4cnnn4)cn3)CC2)ccc2c1COC2=O [Example 72, (R)-N-(1-(2-Hydroxy-2-(4-methyl-1-oxo-1,3-dihydroisobenzofuran-5-yl)ethyl)-4-methylpiperidin-4-yl)-5-(1H-tetrazol-1-yl)pyrazine-2-carboxamide] | 80
9 | Cc1c([C@@H](O)CN2CCC(C)(CNC(=O)c3ccc(-n4cnnn4)nc3)C2)ccc2c1COC2=O (stereo partly drawn) [Example 84, N-((1-((R)-2-Hydroxy-2-(4-methyl-1-oxo-1,3-dihydroisobenzofuran-5-yl)ethyl)-3-methylpyrrolidin-3-yl)methyl)-6-(1H-tetrazol-1-yl)nicotinamide] | 190
10 | COc1cc(C(=O)NC2CCN(CCc3ccc4c(c3C)COC4=O)CC2)ccc1C#N [Example 5, 4-Cyano-3-methoxy-N-(1-(2-(4-methyl-1-oxo-1,3-dihydroisobenzofuran-5-yl)ethyl)piperidin-4-yl)benzamide] | 20
11 | C[C@H]1Cc2cc(CCN3CCC(NC(=O)c4ccc5c(c4)COC5=O)CC3)ccc2C(=O)O1 [Example 4, (S)-N-(1-(2-(3-methyl-1-oxoisochroman-6-yl)ethyl)piperidin-4-yl)-1-oxo-1,3-dihydroisobenzofuran-5-carboxamide] | 320
12 | Cc1c([C@@H](O)CN2CCC(CNC(=O)c3ccc(-n4cnnn4)cn3)(c3ccccc3)C2)ccc2c1COC2=O (stereo partly drawn) [Example 68, N-((1-((R)-2-Hydroxy-2-(4-methyl-1-oxo-1,3-dihydroisobenzofuran-5-yl)ethyl)-3-phenylpyrrolidin-3-yl)methyl)-5-(1H-tetrazol-1-yl)picolinamide] | 630
13 | Cc1nc(C(=O)N[C@H]2CCN(C[C@H](O)c3ccc4c(c3C)COC4=O)C[C@H]2F)ccc1C#N (single isomer, unassigned) [44 A] | 570
14 | Cc1c([C@@H](O)CN2CCC(C)(NC(=O)c3ccc(-n4cnnn4)cn3)CC2)ccc2c1COC2=O [Example 60, (R)-N-(1-(2-Hydroxy-2-(4-methyl-1-oxo-1,3-dihydroisobenzofuran-5-yl)ethyl)-4-methylpiperidin-4-yl)-5-(1H-tetrazol-1-yl)picolinamide] | 180
15 | COc1cc(C(=O)NC2CCN(CC(O)c3ccc(F)c(C#N)c3C)CC2)ccc1C#N (centres unmarked) [Example 14, 4-Cyano-N-(1-(2-(3-cyano-4-fluoro-2-methylphenyl)-2-hydroxyethyl)piperidin-4-yl)-3-methoxybenzamide] | 70
16 | Cc1c(CCN2CCC(NC(=O)c3ccnc(-n4cnnn4)c3)CC2)ccc2c1COC2=O [Example 15, N-(1-(2-(4-Methyl-1-oxo-1,3-dihydroisobenzofuran-5-yl)ethyl)piperidin-4-yl)-2-(1H-tetrazol-1-yl)isonicotinamide] | 450
17 | Cc1cc(C(=O)NC2CCN(C[C@H](O)c3ccc4c(c3C)COC4=O)CC2)ccc1-n1cnnn1 [Example 78, (R)-N-(1-(2-Hydroxy-2-(4-methyl-1-oxo-1,3-dihydroisobenzofuran-5-yl)ethyl)piperidin-4-yl)-3-methyl-4-(1H-tetrazol-1-yl)benzamide] | 560
18 | Cc1c([C@@H](O)CN2CCC(C)(NC(=O)c3ccc(-n4cnnn4)nc3)CC2)ccc2c1COC2=O [Example 51, (R)-N-(1-(2-Hydroxy-2-(4-methyl-1-oxo-1,3-dihydroisobenzofuran-5-yl)ethyl)-4-methylpiperidin-4-yl)-6-(1H-tetrazol-1-yl)nicotinamide] | 390
19 | Cc1c([C@@H](O)CN2CCC(NC(=O)c3ccc(-n4cnnn4)c4ncccc34)CC2)ccc2c1COC2=O [Example 79, (R)-N-(1-(2-Hydroxy-2-(4-methyl-1-oxo-1,3-dihydroisobenzofuran-5-yl)ethyl)piperidin-4-yl)-8-(1H-tetrazol-1-yl)quinoline-5-carboxamide] | 370
20 | Cc1c([C@@H](O)CN2CCC(NC(=O)c3ccc(-n4cccn4)cc3)CC2)ccc2c1COC2=O [Example 37, (R)-N-(1-(2-Hydroxy-2-(4-methyl-1-oxo-1,3-dihydroisobenzofuran-5-yl)ethyl)piperidin-4-yl)-4-(1H-pyrazol-1-yl)benzamide] | 100
21 | Cc1c([C@@H](O)CN2CCC(C)(CNC(=O)c3ccc(-n4cnnn4)cn3)C2)ccc2c1COC2=O (single isomer, unassigned) [69 A] | 880
22 | Cc1c([C@@H](O)CN2CCC(C3(NC(=O)c4ccc(-n5cnnn5)cn4)CCC3)C2)ccc2c1COC2=O (stereo partly drawn) [Example 70, N-(1-(1-((R)-2-Hydroxy-2-(4-methyl-1-oxo-1,3-dihydroisobenzofuran-5-yl)ethyl)pyrrolidin-3-yl)cyclobutyl)-5-(1H-tetrazol-1-yl)picolinamide] | 760
23 | Cc1c([C@@H](O)CN2CCC(NC(=O)c3ccc(-c4nccs4)cc3)CC2)ccc2c1COC2=O [Example 75, (R)-N-(1-(2-Hydroxy-2-(4-methyl-1-oxo-1,3-dihydroisobenzofuran-5-yl)ethyl)piperidin-4-yl)-4-(thiazol-2-yl)benzamide] | 390
